According to publication PMC10607054 (International Journal of Molecular Sciences, 2023):
Read-outs that look alike come from different tables or passages of the source.

Tests used:
[1] = test system: PPAR-responsive element (PPRE); assay: PPRE-driven (J3TKpGL3, apo-AII promoter) Dual-Luciferase reporter assay in melanoma cells; assay type: cell-based; settings: 10^−4 M, 40 h, human melanoma cells WM239A and A375P; vs non-ligand stimulated control
Description: The transcriptional activation of the PPRE promoter was tested using the J3TKpGL3 reporter plasmid, which contains a luciferase gene driven by the PPAR-responsive element (PPRE), which consists of three copies of the J site from the apo-AII gene promoter. The activation of PPAR elements was evaluated in melanoma cells following stimulation with a Firefly–Renilla Dual-Luciferase Reporter System (Promega, Madison, WI, USA). Experiments were carried out using human melanoma line WM239A and A375P (Trust Functional Genomics Cell Bank, London, UK) cells cultured in RPMI culture medium (ThermoFisher Scientific, Waltham, MA, USA) supplemented with 10% fetal bovine serum (EURx, Gdansk, Poland) at 37 °C, with a 5% CO2 content. […] Luciferase activity was measured using a commercial kit (Luciferase Assay System, Promega) according to the instructions of the supplier and assessed in a chemiluminometer (Synergy HT; Bio-Tek, Winooski, VT, USA)) using the Dual-Reporter Luciferase Assay System (Promega, Madison, WI, USA).

AhR = molecular target: T1, AhR (Homo sapiens, UniProt P35869); assay: cell-based Human AhR Reporter Assay System (luciferase)
T1 construct: purchased INDIGO Biosciences
T1 sequence (P35869 11-848): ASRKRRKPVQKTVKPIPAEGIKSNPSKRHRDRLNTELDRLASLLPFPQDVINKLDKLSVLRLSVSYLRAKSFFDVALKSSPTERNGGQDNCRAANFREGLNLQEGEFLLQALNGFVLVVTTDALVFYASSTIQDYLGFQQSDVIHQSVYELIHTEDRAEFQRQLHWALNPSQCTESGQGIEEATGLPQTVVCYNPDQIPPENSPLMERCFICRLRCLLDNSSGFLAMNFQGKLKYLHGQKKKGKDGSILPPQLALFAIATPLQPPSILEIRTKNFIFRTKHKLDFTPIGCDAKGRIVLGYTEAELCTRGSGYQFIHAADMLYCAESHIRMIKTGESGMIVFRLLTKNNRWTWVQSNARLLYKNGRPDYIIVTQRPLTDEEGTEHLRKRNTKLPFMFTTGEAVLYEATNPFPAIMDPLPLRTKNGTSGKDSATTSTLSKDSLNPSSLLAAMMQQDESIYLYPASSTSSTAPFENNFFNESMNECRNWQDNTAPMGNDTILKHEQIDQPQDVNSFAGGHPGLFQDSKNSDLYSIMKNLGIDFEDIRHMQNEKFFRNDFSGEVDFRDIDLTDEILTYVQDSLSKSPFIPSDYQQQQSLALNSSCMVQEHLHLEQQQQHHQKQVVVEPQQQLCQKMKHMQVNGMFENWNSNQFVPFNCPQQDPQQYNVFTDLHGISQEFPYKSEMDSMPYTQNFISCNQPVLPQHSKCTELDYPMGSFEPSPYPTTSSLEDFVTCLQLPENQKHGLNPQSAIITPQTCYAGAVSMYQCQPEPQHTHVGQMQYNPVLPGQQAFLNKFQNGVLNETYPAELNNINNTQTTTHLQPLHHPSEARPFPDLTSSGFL
Description: Briefly, the reporter cells were recovered using the cell recovery medium for 5 h. […] Luciferase detection reagent was added after discarding the media and luminescence was measured using a Citation 5 Cell Imaging Multi-Mode Reader (BioTek, Winooski, VT, USA).

[2] = molecular target: T2, PPARγ ligand-binding domain (Homo sapiens, UniProt P37231); assay: LanthaScreen TR-FRET PPARγ Coactivator Assay Kit (binding to PPARγ LBD); assay type: biochemical
T2 construct: PPARγ-LBD was added to the compounds; purchased Life Technologies Corporation
T2 sequence (P37231 238-503 limits assumed): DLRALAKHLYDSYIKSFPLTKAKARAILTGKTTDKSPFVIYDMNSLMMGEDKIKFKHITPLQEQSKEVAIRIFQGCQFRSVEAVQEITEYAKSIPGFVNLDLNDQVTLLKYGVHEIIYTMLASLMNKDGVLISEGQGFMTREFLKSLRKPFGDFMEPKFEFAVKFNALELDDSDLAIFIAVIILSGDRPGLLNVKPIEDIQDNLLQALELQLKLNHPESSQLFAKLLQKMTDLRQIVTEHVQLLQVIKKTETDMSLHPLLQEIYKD
Description: A PPARγ receptor binding assay was performed using the LanthaScreen™ TR-FRET PPARγ Coactivator Assay Kit (Life Technologies Corporation, Grand Island, NY, USA) following the manufacturer’s protocol. Briefly, PPARγ-LBD was added to the compounds, followed by the addition of the antibody (Tb-anti-GST) and a mixture of peptide (Fluorescein-TRAP220/DRIP-2). The reaction mixture was incubated at room temperature for 2 h or overnight.

[3] = Human AhR Reporter Assay System, two independent dose responses, 3 to 4 replicas per assay, mean ± spread (n = 2), read-out: EC50 (M) AhR
[4] = value in Figure 1, representative experiment, read-out: EC50 (AhR, representative dose response, Figure 1)
[5] = LanthaScreen TR-FRET PPARγ coactivator assay, PPARγ LBD, two independent dose responses, 3 to 4 replicas per assay, read-out: EC50 (M) PPARγ
[6] = value in Figure 3A, representative experiment, read-out: EC50 (PPARγ, representative dose response, Figure 3A)

Row | Compound | stimulation of transcriptional activity of (PPRE)3-containing ApoA-II gene promoter (luciferase, RLU) [1] | EC50 (AhR; EC50 (AhR, representative dose response, Figure 1), value in Figure 1, representative experiment) | EC50 (AhR; EC50 (M) AhR, Human AhR Reporter Assay System, two independent dose responses, 3 to 4 replicas per assay, mean ± spread (n = 2)) | EC50 ([2]; EC50 (M) PPARγ, LanthaScreen TR-FRET PPARγ coactivator assay, PPARγ LBD, two independent dose responses, 3 to 4 replicas per assay) | EC50 ([2]; EC50 (PPARγ, representative dose response, Figure 3A), value in Figure 3A, representative experiment) | EC50 (AhR; [3]) | EC50 (AhR; [4]) | EC50 [2, 5] | EC50 [2, 6]
1 | N[C@@H](Cc1c[nH]c2ccc(O)cc12)C(=O)O [5(OH)tryptophan, 5-hydroxytryptophan] | statistically significant stimulation | – | – | – | – | – | – | – | –
2 | COc1ccc2[nH]cc(CCN)c2c1 [5-MTT, 5-methoxytryptamine] | – | 0.0005 M | 0.00029 M | 3e-05 M | 6.3e-05 M | – | – | – | –
3 | COc1cc2c(CCNC(C)=O)c[nH]c2cc1O [6-Hydroxymelatonin, 6-hydroxymelatonin] | statistically significant stimulation | – | – | – | – | 3.1e-05 M | 3.3e-05 M | 0.0037 M | 0.0001 M
4 | COc1ccc(NC=O)c(C(=O)CCNC(C)=O)c1 [AFMK, N^1-acetyl-N^2-formyl-5-methoxykynuramine] | statistically significant stimulation | – | – | – | – | 4.4e-05 M | 7.5e-05 M | 0.00028 M | 0.00011 M
5 | COc1ccc2[nH]cc(CCNC(C)=O)c2c1 [Melatonin, N-acetyl-5-methoxytryptamine, reference compound] | statistically significant stimulation | – | – | – | – | – | – | 0.0012 M | 0.00095 M
